Reference: patent US20200115353A1, “NEW COMPOUNDS INHIBITORS OF THE YAP/TAZ-TEAD INTERACTION AND THEIR USE IN THE TREATMENT OF MALIGNANT MESOTHELIOMA” (INVENTIVA, priority 2017, published 2020)

The compounds below were run against T1, YAP-TEAD interaction (full length human TEAD1-Gal4 fusion, full length YAP mutant S127A, S397A) (UniProt P04386+P28347) (assay: Cell-based TEAD-GAL4 transactivation assay (luciferase reporter, HEK293)). Settings: HEK293 cells, compounds 0.1 μM to 30 μM, 24 h, concentration that inhibited the luciferase activity by 50%.
T1 construct: The TEAD1 construct was prepared by cloning the full length human TEAD1 cDNA; expressed in transfected cells; host or cells: HEK293 GripTite 293 MSR (Invitrogen R795-07), transiently transfected with pSG5_CMV plasmids
T1 sequence (P04386+P28347 fused, stated change not applied): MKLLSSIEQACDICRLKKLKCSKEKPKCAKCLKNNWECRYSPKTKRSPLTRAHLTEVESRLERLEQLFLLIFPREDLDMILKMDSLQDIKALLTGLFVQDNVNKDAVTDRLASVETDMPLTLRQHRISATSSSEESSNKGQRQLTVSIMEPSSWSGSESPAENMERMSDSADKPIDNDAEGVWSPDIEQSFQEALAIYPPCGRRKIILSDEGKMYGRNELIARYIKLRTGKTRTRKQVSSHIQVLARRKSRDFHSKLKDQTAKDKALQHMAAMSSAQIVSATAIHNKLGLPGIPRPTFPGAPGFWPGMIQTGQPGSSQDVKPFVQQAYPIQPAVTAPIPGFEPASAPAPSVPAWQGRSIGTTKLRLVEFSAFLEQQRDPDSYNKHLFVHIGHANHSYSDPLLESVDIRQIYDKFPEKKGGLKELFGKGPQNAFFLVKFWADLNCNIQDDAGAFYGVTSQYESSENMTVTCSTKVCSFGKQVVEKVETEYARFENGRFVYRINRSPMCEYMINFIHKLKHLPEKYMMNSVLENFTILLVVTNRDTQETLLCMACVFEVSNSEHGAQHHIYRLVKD
Protocol: To identify inhibitors of YAP-TEAD interaction, a transient transactivation assays was carried out into HEK293 cell line (HEK293 GripTite™ 293 MSR (Invitrogen R795-07)) using plasmids containing the full length TEAD1 sequences, the full length YAP mutant (S127A, S397A) and a luciferase gene reporter. All expression constructs were performed into pSG5 backbone plasmid in which the SV40 promoter was replaced by the CMV promoter. The TEAD1 construct was prepared by cloning the full length human TEAD1 cDNA in fusion with the Gal4 DNA Binding Domain (AA 1-148) into pSG5_CMV to create the TEAD1(FL)_hum_pSG5Gal4_CMV. The full length YAP mutant (S127A, S397A) was also cloned into pSG_5 CMV to create the YAP(FL)_hum_pSG5_[…]. The reporter plasmid GAL4(5×RE)_[…]_pGL3-Basic contains 5 copies of the GAL4 responsive element (5′-TCGGAGGACAGTACTCC-3′) upstream of the thymidine kinase (TK) promoter (−105/+56) inserted in a pGL3-Basic vector. To evaluate the selectivity of our compounds in blocking the YAP-TEAD interaction, a counter-screening protein-protein interaction transactivation assays was also established. Briefly, two other expression plasmids, the pBD-P53 which express the P53 (AA 72-390) in fusion with Gal4 and the pAD-SV40T which express the SV40 large T antigen (AA 84-708,AgT), were created. HEK293 cells were seeded at 5×10^4 cells/well in 96 well plates (assay plates) in DMEM medium containing 4.5 g/L D-glucose, 10% high inactivated (HI) fetal bovine serum 1% Glutamax, 1% non-essential amino acid and 1% sodium pyruvate and 0.5% penicillin/streptomycin 37° C. in a humidified atmosphere of 8% CO2. After 24 h, transfections are performed using Jet-PEI as transfectant (101B-010 Polyplus Transfection), according to the instructions of the manufacturer (N/P=10) and a ratio YAP/TEAD=10 (per well: 50 ng of YAP(FL), 5 ng of TEAD(FL) and 50 ng of reporter plasmid). Six hours after cell transfection, the plates (‘assay plate’) were washed with 100 μl PBS per well and cell were treated with compounds in semi-log from 0.1 μM to 30 μM or DMSO 0.5% as control in DMEM 4.5 g/L D-Glucose without phenol red, 0.3% BSA, 1% glutamax, 1% NEAA, 1% sodium pyruvate. Twenty-four hours later, the luciferase activity was determined after addition of 100 μl of Steady Glo™ luciferase assay system (Promega E2550) according to the manufacturer's directions. Luciferase activity in cell extracts is measured by reading luminescence using the Envision device.
The cellular response was determined by fitting the concentration response curves using a 3-parameter curve fit equation and determining the concentration that inhibited the luciferase activity by 50%.
`COc1cc(/C=N/N(CC(C)C)C2=NS(=O)(=O)c3cc(B4OC(=O)CN(C)CC(=O)O4)ccc32)ccc1F` [Ex 69, 2-[3-[[(E)-(4-fluoro-3-methoxy-phenyl)methyleneamino]-isobutyl-amino]-1,1-dioxo-1,2-benzothiazol-6-yl]-6-methyl-1,3,6,2-dioxazaborocane-4,8-dione] gave an IC50 of 1.04 µM.
With `COc1cc(/C=N/N(CC(C)C)C2=NS(=O)(=O)c3cc(B(O)O)ccc32)ccc1F` [Ex 63, [3-[[(E)-(4-fluoro-3-methoxy-phenyl)methyleneamino]-isobutyl-amino]-1,1-dioxo-1,2-benzothiazol-6-yl]boronic acid] the IC50 was 1.08 µM.
`CCC1(CC)C(=O)Nc2ccc(/C=N/N(CC(C)C)C3=NS(=O)(=O)c4cc(OC)ccc43)cc21` [Ex 98, 3,3-diethyl-5-[(E)-[isobutyl-(6-methoxy-1,1-dioxo-1,2-benzothiazol-3-yl) hydrazono]methyl]indolin-2-one] gave an IC50 of 3.92 µM.
`COc1cc(/C=N/N(C)C2=NS(=O)(=O)c3ccc(OCC(=O)N(C)C)cc32)ccc1F` [Ex 58, 2-[[3-[[(E)-(4-fluoro-3-methoxy-phenyl)methyleneamino]-methyl-amino]-1,1-dioxo-1,2-benzothiazol-5-yl]oxy]-N,N-dimethyl-acetamide] was tested, and the IC50 was 3.42 µM.
`COc1cc(/C=N/N(CC(C)C)C2=NS(=O)(=O)c3cc(OCB(O)O)ccc32)ccc1F` [Ex 92, [3-[[(E)-(4-fluoro-3-methoxy-phenyl)methyleneamino]-isobutyl-amino]-1,1-dioxo-1,2-benzothiazol-6-yl]oxymethylboronic acid] was tested, and the IC50 was 0.86 µM.
With `CSc1cc(/C=N/N(CC(C)C)C2=NS(=O)(=O)c3ccccc32)ccc1F` [Ex 107, N-[(E)-(4-fluoro-3-methylsulfanyl-phenyl)methyleneamino]-N-isobutyl-1,1-dioxo-1,2-benzothiazol-3-amine] the IC50 was 2.14 µM.
In the case of `COc1cc(/C=N/N(CC(C)C)C2=NS(=O)(=O)c3ccc(OCB(O)O)cc32)ccc1F` [Ex 95, [3-[[(E)-(4-fluoro-3-methoxy-phenyl)methyleneamino]-isobutyl-amino]-1,1-dioxo-1,2-benzothiazol-5-yl]oxymethylboronic acid], the IC50 is reported as 1.35 µM.
In the case of `CN(/N=C/c1ccc2[nH]c(=O)n(C3CC3)c2c1)C1=NS(=O)(=O)c2ccccc21` [Ex 27, 3-cyclopropyl-5-[(E)-[(1,1-dioxo-1,2-benzothiazol-3-yl)-methyl-hydrazono]methyl]-1H-benzimidazol-2-one], the IC50 is reported as 2.92 µM.
`CNC(=O)COc1ccc2c(c1)C(N(CC(C)C)/N=C/c1ccc(F)c(OC)c1)=NS2(=O)=O` [Ex 105, 2-[[3-[[(E)-(4-fluoro-3-methoxy-phenyl)methyleneamino]-isobutyl-amino]-1,1-dioxo-1,2-benzothiazol-5-yl]oxy]-N-methyl-acetamide] was tested, and the IC50 was 4.94 µM.
`CCOCCN(/N=C/c1ccc(F)c(OC)c1)C1=NS(=O)(=O)c2ccccc21` [Ex 43, N-(2-ethoxyethyl)-N-[(E)-(4-fluoro-3-methoxy-phenyl)methyleneamino]-1,1-dioxo-1,2-benzothiazol-3-amine] showed an IC50 of 2.78 µM.
Compound `CC(C)Oc1cc(/C=N/N(C)C2=NS(=O)(=O)c3ccccc32)ccc1F` [Ex 13, N-[(E)-(4-fluoro-3-isopropoxy-phenyl)methyleneamino]-N-methyl-1,1-dioxo-1,2-benzothiazol-3-amine] has an IC50 of 3.35 µM.
`COc1cc(/C=N/N(C)C2=NS(=O)(=O)c3ccc(OCCN(C)C)cc32)ccc1F` [Ex 57, 5-[2-(dimethylamino)ethoxy]-N-[(E)-(4-fluoro-3-methoxy-phenyl)methyleneamino]-N-methyl-1,1-dioxo-1,2-benzothiazol-3-amine] was tested, and the IC50 was 0.53 µM.
For `CN(/N=C/c1cnc(N2CCCC2)s1)C1=NS(=O)(=O)c2ccccc21` [Ex 6, N-methyl-1,1-dioxo-N-[(E)-(2-pyrrolidin-1-ylthiazol-5-yl)methyleneamino]-1,2-benzothiazol-3-amine], the IC50 was 1.07 µM.
